Assay results: PubChem BioAssay (NCI)
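Five compound concentrations were applied to cells in 96-well plates for 48 hours; endpoints were derived by simple linear interpolation of the resulting dose-response curve. The concentration for full growth arrest is given as TGI.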

Assays:
Experiment in all cases: NCI tumour cell line growth inhibition, 48 h
786-0 renal = tested on: 786-0 renal
A498 renal = tested on: A498 renal
A549 NSCLC = tested on: A549 NSCLC
ACHN renal = tested on: ACHN renal
BT-549 breast = tested on: BT-549 breast
CAKI-1 renal = tested on: CAKI-1 renal
CCRF-CEM leukemia = tested on: CCRF-CEM leukemia
COLO 205 colon = tested on: COLO 205 colon
DU-145 prostate = tested on: DU-145 prostate
EKVX NSCLC = tested on: EKVX NSCLC
HCC-2998 colon = tested on: HCC-2998 colon
HCT-116 colon = tested on: HCT-116 colon
HCT-15 colon = tested on: HCT-15 colon
HOP-62 NSCLC = tested on: HOP-62 NSCLC
HOP-92 NSCLC = tested on: HOP-92 NSCLC
HS 578T breast = tested on: HS 578T breast
HT29 colon = tested on: HT29 colon
IGROV1 ovarian = tested on: IGROV1 ovarian
K-562 leukemia = tested on: K-562 leukemia
KM12 colon = tested on: KM12 colon
M14 melanoma = tested on: M14 melanoma
MALME-3M melanoma = tested on: MALME-3M melanoma
MCF7 breast = tested on: MCF7 breast
MDA-MB-231 breast = tested on: MDA-MB-231 breast
MDA-MB-435 = tested on: MDA-MB-435
MDA-N = tested on: MDA-N
MOLT-4 leukemia = tested on: MOLT-4 leukemia
NCI-H226 lung = tested on: NCI-H226 lung
NCI-H23 lung = tested on: NCI-H23 lung
NCI-H460 lung = tested on: NCI-H460 lung
NCI-H522 lung = tested on: NCI-H522 lung
NCI/ADR-RES ovarian = tested on: NCI/ADR-RES ovarian
OVCAR-3 ovarian = tested on: OVCAR-3 ovarian
OVCAR-4 ovarian = tested on: OVCAR-4 ovarian
OVCAR-5 ovarian = tested on: OVCAR-5 ovarian
OVCAR-8 ovarian = tested on: OVCAR-8 ovarian
PC-3 prostate = tested on: PC-3 prostate
RPMI-8226 leukemia = tested on: RPMI-8226 leukemia
RXF 393 renal = tested on: RXF 393 renal
SF-268 CNS = tested on: SF-268 CNS
SF-295 CNS = tested on: SF-295 CNS
SF-539 CNS = tested on: SF-539 CNS
SK-MEL-2 melanoma = tested on: SK-MEL-2 melanoma
SK-MEL-5 melanoma = tested on: SK-MEL-5 melanoma
SK-OV-3 ovarian = tested on: SK-OV-3 ovarian
SN12C renal = tested on: SN12C renal
SNB-19 CNS = tested on: SNB-19 CNS
SNB-75 CNS = tested on: SNB-75 CNS
SR leukemia = tested on: SR leukemia
SW-620 colon = tested on: SW-620 colon
TK-10 renal = tested on: TK-10 renal
U251 CNS = tested on: U251 CNS
UACC-62 melanoma = tested on: UACC-62 melanoma
UO-31 renal = tested on: UO-31 renal

Question: `Cc1ccc(C(CC(=O)C(C)(C)CN2CCCCC2)SCCS(=O)(=O)O)cc1` (centres undefined) was tested. Which TGI (786-0 renal) did it give?
Answer: The TGI was 59.9 µM.

Question: And the TGI (A498 renal)?
Answer: Its TGI is 48.7 µM.

Question: And the TGI (A549 NSCLC)?
Answer: Its TGI is over 100 µM.

Question: What about the TGI (ACHN renal) of the same molecule?
Answer: Its TGI is 70.8 µM.

Question: What about the TGI (BT-549 breast) of the same molecule?
Answer: Its TGI is over 100 µM.

Question: And the TGI (CAKI-1 renal)?
Answer: The TGI was 51 µM.

Question: What about the TGI (CCRF-CEM leukemia) of the same molecule?
Answer: Its TGI is 45.9 µM.

Question: And the TGI (COLO 205 colon)?
Answer: The TGI was 35.3 µM.

Question: And the TGI (DU-145 prostate)?
Answer: The TGI was over 100 µM.

Question: And the TGI (EKVX NSCLC)?
Answer: The TGI was 66.5 µM.

Question: And the TGI (HCC-2998 colon)?
Answer: The TGI was 83.3 µM.

Question: What about the TGI (HCT-116 colon) of the same molecule?
Answer: The TGI was 59.2 µM.

Question: And the TGI (HCT-15 colon)?
Answer: The TGI was 72 µM.

Question: What about the TGI (HOP-62 NSCLC) of the same molecule?
Answer: The TGI was 78.8 µM.

Question: What about the TGI (HOP-92 NSCLC) of the same molecule?
Answer: The TGI was 42.3 µM.

Question: What about the TGI (HS 578T breast) of the same molecule?
Answer: The TGI was 68.9 µM.

Question: What about the TGI (HT29 colon) of the same molecule?
Answer: Its TGI is 72.8 µM.

Question: And the TGI (IGROV1 ovarian)?
Answer: Its TGI is over 100 µM.

Question: And the TGI (K-562 leukemia)?
Answer: The TGI was 51.4 µM.

Question: What about the TGI (KM12 colon) of the same molecule?
Answer: Its TGI is over 100 µM.

Question: What about the TGI (M14 melanoma) of the same molecule?
Answer: Its TGI is 50.1 µM.

Question: And the TGI (MALME-3M melanoma)?
Answer: The TGI was 73.2 µM.

Question: And the TGI (MCF7 breast)?
Answer: Its TGI is 83.8 µM.

Question: And the TGI (MDA-MB-231 breast)?
Answer: The TGI was over 100 µM.

Question: And the TGI (MDA-MB-435)?
Answer: The TGI was 57.7 µM.

Question: And the TGI (MDA-N)?
Answer: The TGI was over 100 µM.

Question: And the TGI (MOLT-4 leukemia)?
Answer: Its TGI is 48.7 µM.

Question: What about the TGI (NCI-H226 lung) of the same molecule?
Answer: Its TGI is 70.5 µM.

Question: And the TGI (NCI-H23 lung)?
Answer: The TGI was 86.5 µM.

Question: And the TGI (NCI-H460 lung)?
Answer: Its TGI is over 100 µM.

Question: And the TGI (NCI-H522 lung)?
Answer: The TGI was 51.2 µM.

Question: And the TGI (NCI/ADR-RES ovarian)?
Answer: The TGI was 84.9 µM.

Question: And the TGI (OVCAR-3 ovarian)?
Answer: Its TGI is 49.5 µM.

Question: And the TGI (OVCAR-4 ovarian)?
Answer: The TGI was 84.3 µM.

Question: And the TGI (OVCAR-5 ovarian)?
Answer: The TGI was over 100 µM.

Question: And the TGI (OVCAR-8 ovarian)?
Answer: Its TGI is 65.4 µM.

Question: And the TGI (PC-3 prostate)?
Answer: The TGI was over 100 µM.

Question: And the TGI (RPMI-8226 leukemia)?
Answer: The TGI was 48.1 µM.

Question: What about the TGI (RXF 393 renal) of the same molecule?
Answer: Its TGI is 57.1 µM.

Question: What about the TGI (SF-268 CNS) of the same molecule?
Answer: The TGI was over 100 µM.

Question: And the TGI (SF-295 CNS)?
Answer: Its TGI is 73.4 µM.

Question: And the TGI (SF-539 CNS)?
Answer: Its TGI is 49.1 µM.

Question: And the TGI (SK-MEL-2 melanoma)?
Answer: Its TGI is 40.1 µM.

Question: What about the TGI (SK-MEL-5 melanoma) of the same molecule?
Answer: Its TGI is 46.5 µM.

Question: What about the TGI (SK-OV-3 ovarian) of the same molecule?
Answer: Its TGI is 91 µM.

Question: What about the TGI (SN12C renal) of the same molecule?
Answer: The TGI was 94.8 µM.

Question: What about the TGI (SNB-19 CNS) of the same molecule?
Answer: Its TGI is over 100 µM.

Question: And the TGI (SNB-75 CNS)?
Answer: The TGI was 96.4 µM.

Question: What about the TGI (SR leukemia) of the same molecule?
Answer: The TGI was 45.3 µM.

Question: And the TGI (SW-620 colon)?
Answer: Its TGI is 62.8 µM.

Question: And the TGI (TK-10 renal)?
Answer: The TGI was 86 µM.

Question: What about the TGI (U251 CNS) of the same molecule?
Answer: The TGI was 81.8 µM.

Question: And the TGI (UACC-62 melanoma)?
Answer: The TGI was 46.8 µM.

Question: And the TGI (UO-31 renal)?
Answer: Its TGI is 65.3 µM.
